In patent publication US20170298056A1, “SMALL MOLECULE INHIBITORS OF HIV-1 ENTRY AND METHODS OF USE THEREOF” (Dana-Farber Cancer Institute, Inc., priority 2014, published 2017):
Read-outs that look alike come from different tables or passages of the source.

How the values were obtained:
[1] = tested on: HIV-1JR-FL; experiment: Viral infection assay, recombinant HIV-1 pseudotyped with JR-FL Env (wild type and mutants), Cf2Th-CD4/CCR5 cells; assay type: cell-based; details: for Fold change: mutant/wild-type IC50
From the text: HIV-1 Env mutants. Mutations were introduced into the plasmid expressing the fulllength HIV-1YU2 or HIV-1JR-FL Envs using the QuikChange II site-directed mutagenesis protocol or the QuikChange multi site-directed mutagenesis kit (Stratagene). The presence of the desired mutations was confirmed by DNA sequencing. All HIV-1 Env residues are numbered based on alignment with the HXBc2 prototypic sequence, according to current convention.
Production of recombinant HIV-1 expressing luciferase. […] After 48 hours, the supernatant was collected, buffered with 50 mM Hepes pH 7.4 (final concentration) and centrifuged for 5 minutes at 750×g and 4° C. The virus-containing supernatant was used directly or frozen at −80° C.
Viral infection assay. Each test compound was serially diluted in DMSO in a 96-well B&W isoplate (PerkinElmer, Boston, Mass.) using an HP D300 Digital Dispenser, to a final volume of 450 nl. DMSO was used as a control. Viruses pseudotyped with a specific Env were added to each well and incubated briefly at room temperature. Cf2Th-CD4/CCR5 cells were detached with StemPro Accutase Cell Dissociation Reagent (Invitrogen, cat #A11105-01), washed once, and 5000 cells were added to each well. […] Following incubation, the medium was aspirated and cells were lysed with 30 μl of Passive Lysis Buffer (Promega, cat #E1941). The activity of the firefly luciferase, which was used as a reporter protein in the system, was measured with a Centro LB 960 luminometer (Berthold Technologies, Oak Ridge, Tenn.). One hundred microliters of assay buffer (15 mM MgSO4, 15 mM KH2PO4/K2HPO4 pH 7.8, 1 mM ATP and 1 mM DTT) was injected to each well, followed by a 50 μl injection of 1 mM Dluciferin potassium salt (BD Pharmingen, San Jose, Calif.); luminescence was measured for 2 sec. Infection of PBMC was done as above, but 20,000-40,000 cells/well and viruses concentrated by ultracentrifugation were used. After four hours of incubation with viruses, the cells were centrifuged at 200×g for 6 minutes at 4° C., resuspended in 100 μl RPMI-PBMC medium and incubated at 37° C. for an additional 36-40 hours (total 40-44 hours). Supernatant was removed after centrifugation at 400×g for 5 minutes and cells were processed to detect luciferase activity, as described above.

[2] = tested on: HIV-1JR-FL gp120; experiment: ELISA, binding of monoclonal antibodies to gp120 in presence of compound; details: preincubation of gp120 with 18A
Method: Enzyme-linked immunosorbent assay (ELISA). […] Wells were blocked with blocking buffer (5% nonfat dry milk (Bio-Rad) in PBS) for 2 hours and then washed twice with PBS. Between 0.25 and 0.5 μg of purified HIV-1JR-FL gp120 in blocking buffer was added to each well; the plate was incubated for 60 minutes and washed thrice with PBS. […] The plate was incubated for a further 30 minutes and washed thrice with 0.05% Tween in PBS and thrice with PBS. […] The plate was incubated for 30 minutes, washed three times with 0.05% Tween in PBS and three times with PBS, as before, and 80 μl of SuperSignal chemiluminescent substrate (Pierce) was added to each well. The relative light units in each well were measured for 2 sec with a Centro LB 960 luminometer (Berthold Technologies). All procedures were performed at room temperature. Cellbased ELISA was performed.

With O=C(N/N=C/c1ccc(O)cc1)Nc1cccc2nsnc12 [Compound 18A] the IC50 ([1]; Example 8 table, read-out: IC50 (JR-FL)) was 3.6 µM, the Fold change ([1]; JR-FL Env D167A) was 1.5 and the IC50 ([1]; JR-FL Env D167A, read-out: IC50) was 5.3 ± 1.5 µM. For the same compound, the Fold change ([1]; JR-FL Env E153A) was 0.9, the IC50 ([1]; JR-FL Env E153A, read-out: IC50) was 3.1 ± 0.7 µM and the Fold change ([1]; JR-FL Env E168K + N188A) was 0.7. It also gave a Fold change ([1]; JR-FL Env I109W) of 0.4, an IC50 ([1]; JR-FL Env I109W, read-out: IC50) of 1.6 ± 0.8 µM and a Fold change ([1]; JR-FL Env I154A) of 4.8. The IC50 ([1]; JR-FL Env I154A, read-out: IC50) was 17.1 ± 0.9 µM, the Fold change ([1]; JR-FL Env I194A) was 0.5 and the IC50 ([1]; JR-FL Env I194A, read-out: IC50) was 1.8 ± 0.4 µM. The Fold change ([1]; JR-FL Env I424A) was 4.5, the IC50 ([1]; JR-FL Env I424A, read-out: IC50) was 16.2 ± 2 µM and the Fold change ([1]; JR-FL Env K155A) was 0.6. For the same compound, the IC50 ([1]; JR-FL Env K155A, read-out: IC50) was 2.1 ± 0.9 µM, the Fold change ([1]; JR-FL Env K178A) was 0.4 and the IC50 ([1]; JR-FL Env K178A, read-out: IC50) was 1.6 ± 0.3 µM. The Fold change ([1]; JR-FL Env L175A) was 2.1, the IC50 ([1]; JR-FL Env L175A, read-out: IC50) was 7.7 ± 1.2 µM and the Fold change ([1]; JR-FL Env L179G) was 1.8. It also gave an IC50 ([1]; JR-FL Env L179G, read-out: IC50) of 6.5 ± 0.7 µM, a Fold change ([1]; JR-FL Env L193A) of 5.0 and an IC50 ([1]; JR-FL Env L193A, read-out: IC50) of 18.1 ± 2 µM. It also gave a Fold change ([1]; JR-FL Env M147A) of 1.3, an IC50 ([1]; JR-FL Env M147A, read-out: IC50) of 4.8 ± 1.2 µM and a Fold change ([1]; JR-FL Env M434A) of 5.0. For the same compound, the IC50 ([1]; JR-FL Env M434A, read-out: IC50) was 17.9 ± 1.2 µM, the Fold change ([1]; JR-FL Env N136A) was 0.5 and the IC50 ([1]; JR-FL Env N136A, read-out: IC50) was 1.8 ± 0.1 µM. For the same compound, the Fold change ([1]; JR-FL Env N139A) was 0.5, the IC50 ([1]; JR-FL Env N139A, read-out: IC50) was 1.9 ± 0.2 µM and the Fold change ([1]; JR-FL Env N141A) was 0.5. It also gave an IC50 ([1]; JR-FL Env N141A, read-out: IC50) of 1.7 ± 0.3 µM, a Fold change ([1]; JR-FL Env N156A) of 5.2 and an IC50 ([1]; JR-FL Env N156A, read-out: IC50) of 18.7 ± 1.5 µM. It also gave a Fold change ([1]; JR-FL Env N187A + N188A) of 0.7, a Fold change ([1]; JR-FL Env N188A) of 1.2 and an IC50 ([1]; JR-FL Env N188A, read-out: IC50) of 4.2 ± 0.8 µM. It also gave a Fold change ([1]; JR-FL Env Q114E) of 0.9, an IC50 ([1]; JR-FL Env Q114E, read-out: IC50) of 3.4 ± 0.6 µM and a Fold change ([1]; JR-FL Env Q422A) of 2.2. It also gave an IC50 ([1]; JR-FL Env Q422A, read-out: IC50) of 7.8 ± 1.7 µM, a Fold change ([1]; JR-FL Env R166A) of 0.8 and an IC50 ([1]; JR-FL Env R166A, read-out: IC50) of 2.9 ± 0.6 µM. It also gave a Fold change ([1]; JR-FL Env T143A + S146A) of 0.7, a Fold change ([1]; JR-FL Env T163A + S164A) of 0.8 and a Fold change ([1]; JR-FL Env V134A) of 0.8. It also gave an IC50 ([1]; JR-FL Env V134A, read-out: IC50) of 2.8 ± 2.1 µM, a Fold change ([1]; JR-FL Env V430S) of 0.2 and an IC50 ([1]; JR-FL Env V430S, read-out: IC50) of 0.7 ± 0.3 µM. It also gave a Fold change ([1]; JR-FL Env W112A) of 0.8, an IC50 ([1]; JR-FL Env W112A, read-out: IC50) of 2.8 ± 0.7 µM and a Fold change ([1]; JR-FL Env W479A) of 0.2. For the same compound, the IC50 ([1]; JR-FL Env W479A, read-out: IC50) was 0.8 ± 0.2 µM, the Fold change ([1]; JR-FL Env Y173A) was 0.9 and the IC50 ([1]; JR-FL Env Y173A, read-out: IC50) was 3.1 ± 1.2 µM. For the same compound, the Fold change ([1]; JR-FL Env Y177A) was 2.8, the IC50 ([1]; JR-FL Env Y177A, read-out: IC50) was 10.2 ± 1 µM and the Fold change ([1]; JR-FL Env Y435A) was 3.5. It also gave an IC50 ([1]; JR-FL Env Y435A, read-out: IC50) of 12.7 ± 3.5 µM, an IC50 ([1]; JR-FL Env double mutant E168K + N188A, read-out: IC50) of 2.4 ± 1.4 µM and an IC50 ([1]; JR-FL Env double mutant N187A + N188A, read-out: IC50) of 2.5 ± 0.6 µM. The IC50 ([1]; JR-FL Env double mutant T143A + S146A, read-out: IC50) was 2.4 ± 0.2 µM, the IC50 ([1]; JR-FL Env double mutant T163A + S164A, read-out: IC50) was 2.7 ± 0.3 µM and the Fold change ([1]; JR-FL Env wild type) was 1. The IC50 ([1]; JR-FL Env wild type, read-out: IC50) was 3.6 µM, the “Therapeutic Index (TI)” value ([1]; calculated from IC50 against JR-FL and A-MLV) was 15.9 and the “effect of glycosidase inhibitor treatment of virions on 18A inhibition” value ([1]; virions produced in the presence of two glycosidase inhibitors) was “Neither treatment had a significant effect”. For the same compound, the “binding of E51, 17b and 412d (CD4i) antibodies to gp120” value [2] was “modest but reproducible decrease” and the “binding of most monoclonal antibodies to gp120” value [2] was “not affected”.
